The data set can be described thus: caffeic acid loading rate of carrier incubated with caffeic acid solution in ethanol. In kind it is physicochemical. Particulars: optimal loading conditions: molar ratio γ-cyclodextrin to caffeic acid 1:64, loading time 900 minutes, 40° C. As to the method: In one embodiment, under the conditions of reaction temperature of 40° C. and reaction time of 900 minutes, the effects of different ratios of the cyclodextrin metal-organic framework material to caffeic acid (a molar ratio of γ-cyclodextrin in the cyclodextrin metal-organic framework material to caffeic acid is 1:4, 1:8, 1:32, 1:64 and 1:128, respectively) on the caffeic acid loading rate are compared. From the results, it can be seen that when the molar ratio of γ-cyclodextrin to caffeic acid in the cyclodextrin metal-organic framework composite is 1:4, the caffeic acid loading rate […]; with the increase of caffeic acid dosage, the caffeic acid loading rate gradually increases, and the increase of the loading rate is no longer obvious after increasing to 1:64. Therefore, the molar ratio of γ-cyclodextrin in the cyclodextrin metal-organic framework material to caffeic acid is selected from 1:4 to 1:128, further from 1:32 to 1:128, further from […], still further from 1: 60-70, and most preferably is 1:64.
In one embodiment, the effects of different incubating time (10, 20, 60, 180, 360, 720, 900, 2160 minutes) on the caffeic acid loading rate are compared under the conditions: the molar ratio of γ-cyclodextrin in the cyclodextrin metal-organic framework material to caffeic acid being 1:64 and the reaction temperature being 40° C. […]

Molecules are shown by their SMILES.

As for `OC[C@H]1O[C@@H]2O[C@H]3[C@H](O)[C@@H](O)[C@@H](O[C@H]4[C@H](O)[C@@H](O)[C@@H](O[C@H]5[C@H](O)[C@@H](O)[C@@H](O[C@H]6[C@H](O)[C@@H](O)[C@@H](O[C@H]7[C@H](O)[C@@H](O)[C@@H](O[C@H]8[C@H](O)[C@@H](O)[C@@H](O[C@H]9[C@H](O)[C@@H](O)[C@@H](O[C@H]1[C@H](O)[C@H]2O)O[C@@H]9CO)O[C@@H]8CO)O[C@@H]7CO)O[C@@H]6CO)O[C@@H]5CO)O[C@@H]4CO)O[C@@H]3CO` [γ-cyclodextrin], the “caffeic acid loading rate” value came out at 7.28%.
